Results taken from patent US7803801B2, “Aminopyridine compounds having Syk inhibitory activity” (Japan Tobacco, Inc., priority 2005, dated 2010).
Counter-ions that a name gives are not always drawn. Like-named read-outs stand apart in the source and are kept apart here.

Target: GST-Syk Full Protein (human) (Homo sapiens, UniProt P43405)
Assay: Syk kinase inhibition test (HTRF method)
Format: biochemical
Outline: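 HTRF read-out: after EDTA termination and 1 h with XL665-streptavidin and Eu-anti-phosphotyrosine, the 665/620 nm ratio was measured. The reaction ran 30 min at 20–25 °C with final 6.4 nM human GST-Syk, 250 nM biotinylated peptide, 100 μM ATP, pH 7.0 HEPES buffer, 2% DMSO.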

[1] = Tables 1-x, compounds A, read-out: sykHTRF ave IC50
[2] = Tables 2-x, thiophene compounds B, read-out: sykHTRK ave IC50

| Compound | IC50 [1] [nM] | IC50 [2] [nM] |
| --- | --- | --- |
| O=C(O)CCC1CCN(c2ncc(-c3cccc(Nc4ccccn4)n3)s2)CC1 [Compound A-682] | 100 to 1000 |  |
| O=C(O)C1CCN(c2ncc(-c3cccc(Nc4ccccn4)n3)s2)CC1 [Compound A-683] | 100 to 1000 |  |
| Cc1ccnc(Nc2cccc(-c3cnc(N4CCC(C(F)C(=O)O)CC4)s3)n2)c1 (stereo not shown) [Compound A-684, fluoro-(1-{5-[6-(4-methylpyridin-2-ylamino)pyridin-2-yl]thiazol-2-yl}piperidin-4-yl)acetic acid] | < 100 |  |
| Cc1ccnc(Nc2cccc(-c3cnc(CN4CCC(C(N)=O)CC4)s3)n2)c1 [Compound A-685, 1-{5-[6-(4-methylpyridin-2-ylamino)pyridin-2-yl]thiazol-2-ylmethyl}piperidine-4-carboxamide] | < 100 |  |
| CNC(=O)C1CCN(Cc2ncc(-c3cccc(Nc4cc(C)ccn4)n3)s2)CC1 [Compound A-686] | 100 to 1000 |  |
| CNC(=O)CN(C)Cc1ncc(-c2cccc(Nc3cc(C)ccn3)n2)s1 [Compound A-687] | 100 to 1000 |  |
| Cc1ccnc(Nc2cccc(-c3cnc(CN(C)CC(=O)N(C)C)s3)n2)c1 [Compound A-688] | 100 to 1000 |  |
| Cc1ccnc(Nc2cccc(-c3cnc(CN(C)CC(=O)NCC(C)(C)C)s3)n2)c1 [Compound A-689] | 100 to 1000 |  |
| NC(=O)[C@@H]1CCCN1c1ncc(-c2cccc(Nc3ccccn3)n2)s1 [Compound A-690] | 100 to 1000 |  |
| CN(c1ncc(-c2cccc(Nc3ccccn3)n2)s1)C(C)(C)c1ccc(C(=O)O)cc1 [Compound A-691] | 100 to 1000 |  |
| CCc1ccnc(Nc2cccc(-c3cnc(N4CCC(CC(=O)O)CC4)s3)n2)c1 [Compound A-692, (1-{5-[6-(4-ethylpyridin-2-ylamino)pyridin-2-yl]thiazol-2-yl}piperidin-4-yl)acetic acid dihydrochloride] | < 100 |  |
| Cc1ccnc(Nc2cccc(-c3cnc(NC(C)C)s3)n2)c1 [Compound A-693, N-isopropyl-N-{5-[6-(4-methylpyridin-2-ylamino)pyridin-2-yl]thiazol-2-yl}amine] | < 100 |  |
| Cc1ccnc(Nc2cccc(-c3cnc(NCc4ccccc4)s3)n2)c1 [Compound A-694] | 100 to 1000 |  |
| Cc1ccnc(Nc2cccc(-c3cnc(NCCN4CCOCC4)s3)n2)c1 [Compound A-695, N-{5-[6-(4-methylpyridin-2-ylamino)pyridin-2-yl]thiazol-2-yl}-N-(2-morpholin-4-ylethyl)amine] | < 100 |  |
| Cc1ccnc(Nc2cccc(-c3cnc(N(C)C4CCN(C(=O)NC5CCCCC5)CC4)s3)n2)c1 [Compound A-696] | 100 to 1000 |  |
| Cc1ccnc(Nc2cccc(-c3cnc(CN(C)CC(N)=O)s3)n2)c1 [Compound A-697, 2-(N-methyl-N-{5-[6-(4-methylpyridin-2-ylamino)pyridin-2-yl]thiazol-2-ylmethyl}amino)acetamide] | < 100 |  |
| CCC(C(=O)O)C1CCN(c2ncc(-c3cccc(Nc4cc(C)ccn4)n3)s2)CC1 (stereo not shown) [Compound A-698, 2-(1-{5-[6-(4-methylpyridin-2-ylamino)pyridin-2-yl]thiazol-2-yl}piperidin-4-yl)butyric acid] | < 100 |  |
| CN(C[C@H]1CC[C@H](C(=O)O)CC1)c1ncc(-c2cccc(Nc3ccccn3)n2)s1 [Compound A-699, trans-4-[(N-methyl-N-{5-[6-(pyridin-2-ylamino)pyridin-2-yl]thiazol-2-yl}amino)methyl]cyclohexanecarboxylic acid dihydrochloride] | < 100 |  |
| O=C(O)CC1CCN(c2ncc(-c3cccc(Nc4cc(OCC(F)(F)F)ccn4)n3)s2)CC1 [Compound A-700, [1-(5-{6-[4-(2,2,2-trifluoroethoxy)pyridin-2-ylamino]pyridin-2-yl}thiazol-2-yl)piperidin-4-yl]acetic acid dihydrochloride] | < 100 |  |
| Cc1ccnc(Nc2cccc(-c3cnc(NCCc4ccccc4)s3)n2)c1 [Compound A-701] | 100 to 1000 |  |
| Cc1ccnc(Nc2cccc(-c3cnc(N(C)CC(C)(C)O)s3)n2)c1 [Compound A-702, 2-methyl-1-(N-methyl-N-{5-[6-(4-methylpyridin-2-ylamino)pyridin-2-yl]thiazol-2-yl}amino)propan-2-ol] | < 100 |  |
| Cc1ccnc(Nc2cccc(-c3cnc(N(C)C4CCN(C(=O)N5CCC(O)CC5)CC4)s3)n2)c1 [Compound A-703] | 100 to 1000 |  |
| Cc1ccnc(Nc2cccc(-c3cnc(N4CCCC(CCC(=O)O)C4)s3)n2)c1 (stereo not shown) [Compound A-704, 3-(1-{5-[6-(4-methylpyridin-2-ylamino)pyridin-2-yl]thiazol-2-yl}piperidin-3-yl)propionic acid] | < 100 |  |

| Compound | IC50 [1] [nM] | IC50 [2] [nM] |
| --- | --- | --- |
| Cc1ccnc(Nc2cccc(-c3cnc(N(C)C4CCN(C(=O)NCCO)CC4)s3)n2)c1 [Compound A-705, N-(2-hydroxyethyl)-4-(N′-methyl-N′-{5-[6-(4-methylpyridin-2-ylamino)pyridin-2-yl]thiazol-2-yl}amino)piperidine-1-carboxamide] | < 100 |  |
| CN(CCO)c1ncc(-c2cccc(Nc3ccccn3)n2)s1 [Compound A-706] | 100 to 1000 |  |
| CC(C)(C(=O)O)C1CCN(c2ncc(-c3cccc(Nc4cnccn4)n3)s2)CC1 [Compound A-707, 2-methyl-2-(1-{5-[6-(pyrazin-2-ylamino)pyridin-2-yl]thiazol-2-yl}piperidin-4-yl)propionic acid dihydrochloride] | < 100 |  |
| COc1ccc(C)cc1Nc1cccc(-c2cnc(N3CCC(CC(=O)O)CC3)s2)n1 [Compound A-708] | 100 to 1000 |  |
| CC(=O)N(Cc1ccc(C(=O)O)cc1)Cc1ncc(-c2cccc(Nc3cc(C)ccn3)n2)s1 [Compound A-709, 4-[(N-acetyl-N-{5-[6-(4-methylpyridin-2-ylamino)pyridin-2-yl]thiazol-2-ylmethyl}amino)methyl]benzoic acid] | < 100 |  |
| CC(C)(C)c1ccnc(Nc2cccc(-c3cnc(N4CCC(CC(=O)O)CC4)s3)n2)c1 [Compound A-710, (1-{5-[6-(4-tert-butylpyridin-2-ylamino)pyridin-2-yl]thiazol-2-yl}piperidin-4-yl)acetic acid dihydrochloride] | < 100 |  |
| CC(C)c1ccnc(Nc2cccc(-c3cnc(N4CCC(CC(=O)O)CC4)s3)n2)c1 [Compound A-711, (1-{5-[6-(4-isopropylpyridin-2-ylamino)pyridin-2-yl]thiazol-2-yl}piperidin-4-yl)acetic acid dihydrochloride] | < 100 |  |
| Cc1ccnc(Nc2cccc(-c3cnc(N4CCC5(CC4)CC5C(=O)O)s3)n2)c1 (stereo not shown) [Compound A-712, 6-{5-[6-(4-methylpyridin-2-ylamino)pyridin-2-yl]thiazol-2-yl}-6-azaspiro[2.5]octane-1-carboxylic acid] | < 100 |  |
| CC(C)(C(=O)O)C1CCN(c2ncc(-c3cccc(Nc4cc(CCO)ccn4)n3)s2)CC1 [Compound A-713, 2-[1-(5-{6-[4-(2-hydroxyethyl)pyridin-2-ylamino]pyridin-2-yl}thiazol-2-yl)piperidin-4-yl]-2-methylpropionic acid] | < 100 |  |
| CC(C)(C(=O)O)C1CCN(c2ncc(-c3cccc(Nc4ccccn4)n3)s2)CC1 [Compound A-714, 2-methyl-2-(1-{5-[6-(pyridin-2-ylamino)pyridin-2-yl]thiazol-2-yl}piperidin-4-yl)propionic acid] | < 100 |  |
| O=C(O)C(F)C1CCN(c2ncc(-c3cccc(Nc4cnccn4)n3)s2)CC1 (stereo not shown) [Compound A-715, fluoro-(1-{5-[6-(pyrazin-2-ylamino)pyridin-2-yl]thiazol-2-yl}piperidin-4-yl)acetic acid dihydrochloride] | < 100 |  |
| O=C(O)C(F)C1CCN(c2ncc(-c3cccc(Nc4ccccn4)n3)s2)CC1 (stereo not shown) [Compound A-716, fluoro-(1-{5-[6-(pyridin-2-ylamino)pyridin-2-yl]thiazol-2-yl}piperidin-4-yl)acetic acid dihydrochloride] | < 100 |  |
| CC(C)(O)c1ccnc(Nc2cccc(-c3cnc(N4CCC(CC(=O)O)CC4)s3)n2)c1 [Compound A-717, [1-(5-{6-[4-(1-hydroxy-1-methylethyl)pyridin-2-ylamino]pyridin-2-yl}thiazol-2-yl)piperidin-4-yl]acetic acid dihydrochloride] | < 100 |  |
| Cc1ccnc(Nc2cccc(-c3cnc(N4CCC(C(C)(C)C(=O)O)CC4)s3)n2)c1 [Compound A-718, 2-methyl-2-(1-{5-[6-(4-methylpyridin-2-ylamino)pyridin-2-yl]thiazol-2-yl}piperidin-4-yl)propionic acid dihydrochloride] | < 100 |  |
| Cc1ccnc(Nc2cccc(-c3cnc(N4CCCC(CCCCC(=O)O)C4)s3)n2)c1 (stereo not shown) [Compound A-719, 5-(1-{5-[6-(4-methylpyridin-2-ylamino)pyridin-2-yl]thiazol-2-yl}piperidin-3-yl)pentanoic acid dihydrochloride] | < 100 |  |
| Cc1ccnc(Nc2cccc(-c3cnc(CN(C)C(C)(C)C(N)=O)s3)n2)c1 [Compound A-720, 2-methyl-2-(N-methyl-N-{5-[6-(4-methylpyridin-2-ylamino)pyridin-2-yl]thiazol-2-ylmethyl}amino)propionamide] | < 100 |  |
| CC(=O)c1ccc(-c2cccc(N(C(C)=O)c3cc(C)ccn3)n2)s1 [Compound B-89] |  | > 1000 |
| CC(=O)c1ccc(-c2cccc(N(C)c3cc(C)ccn3)n2)s1 [Compound B-90] |  | > 1000 |
| Cc1ccnc(Nc2cccc(-c3ccc(COc4ccc(C(=O)O)cc4)s3)n2)c1 [Compound B-105] |  | 100 to 1000 |
| Cc1ccnc(Nc2cccc(-c3ccc(CN4CCC(C(=O)O)CC4)s3)n2)c1 [Compound B-106] |  | 100 to 1000 |
| Cc1ccnc(Nc2cccc(-c3ccc(CN4CCc5cc(C(=O)O)ccc5C4)s3)n2)c1 [Compound B-107] |  | 100 to 1000 |
| Cc1ccnc(Nc2cccc(-c3ccc(C(C)OCc4ccc(C(=O)O)cc4)s3)n2)c1 (stereo not shown) [Compound B-108] |  | 100 to 1000 |
| Cc1ccnc(Nc2cccc(-c3ccc(C(O)C(F)(F)C(=O)O)s3)n2)c1 (stereo not shown) [Compound B-109, 2,2-difluoro-3-hydroxy-3-{5-[6-(4-methylpyridin-2-ylamino)pyridin-2-yl]thiophen-2-yl}propionic acid] |  | < 100 |
